pIC50: −log10 of the molar value. Peptide text beside a SMILES is read from it.
target: T1, ACE derived from bovine lung (Bos taurus, UniProt P12820); assay: Evaluation of ACE inhibitory activity (hippuryl-histidyl-leucine substrate, absorbance at 228 nm); format: biochemical; conditions: peptide concentration at which ACE inhibitory effect was 50%; 37° C., 30 minutes, pH 8.3 borate buffer
T1 construct: ACE derived from bovine lung; host or cells: bovine lung tissue
T1 sequence (P12820 29-1306): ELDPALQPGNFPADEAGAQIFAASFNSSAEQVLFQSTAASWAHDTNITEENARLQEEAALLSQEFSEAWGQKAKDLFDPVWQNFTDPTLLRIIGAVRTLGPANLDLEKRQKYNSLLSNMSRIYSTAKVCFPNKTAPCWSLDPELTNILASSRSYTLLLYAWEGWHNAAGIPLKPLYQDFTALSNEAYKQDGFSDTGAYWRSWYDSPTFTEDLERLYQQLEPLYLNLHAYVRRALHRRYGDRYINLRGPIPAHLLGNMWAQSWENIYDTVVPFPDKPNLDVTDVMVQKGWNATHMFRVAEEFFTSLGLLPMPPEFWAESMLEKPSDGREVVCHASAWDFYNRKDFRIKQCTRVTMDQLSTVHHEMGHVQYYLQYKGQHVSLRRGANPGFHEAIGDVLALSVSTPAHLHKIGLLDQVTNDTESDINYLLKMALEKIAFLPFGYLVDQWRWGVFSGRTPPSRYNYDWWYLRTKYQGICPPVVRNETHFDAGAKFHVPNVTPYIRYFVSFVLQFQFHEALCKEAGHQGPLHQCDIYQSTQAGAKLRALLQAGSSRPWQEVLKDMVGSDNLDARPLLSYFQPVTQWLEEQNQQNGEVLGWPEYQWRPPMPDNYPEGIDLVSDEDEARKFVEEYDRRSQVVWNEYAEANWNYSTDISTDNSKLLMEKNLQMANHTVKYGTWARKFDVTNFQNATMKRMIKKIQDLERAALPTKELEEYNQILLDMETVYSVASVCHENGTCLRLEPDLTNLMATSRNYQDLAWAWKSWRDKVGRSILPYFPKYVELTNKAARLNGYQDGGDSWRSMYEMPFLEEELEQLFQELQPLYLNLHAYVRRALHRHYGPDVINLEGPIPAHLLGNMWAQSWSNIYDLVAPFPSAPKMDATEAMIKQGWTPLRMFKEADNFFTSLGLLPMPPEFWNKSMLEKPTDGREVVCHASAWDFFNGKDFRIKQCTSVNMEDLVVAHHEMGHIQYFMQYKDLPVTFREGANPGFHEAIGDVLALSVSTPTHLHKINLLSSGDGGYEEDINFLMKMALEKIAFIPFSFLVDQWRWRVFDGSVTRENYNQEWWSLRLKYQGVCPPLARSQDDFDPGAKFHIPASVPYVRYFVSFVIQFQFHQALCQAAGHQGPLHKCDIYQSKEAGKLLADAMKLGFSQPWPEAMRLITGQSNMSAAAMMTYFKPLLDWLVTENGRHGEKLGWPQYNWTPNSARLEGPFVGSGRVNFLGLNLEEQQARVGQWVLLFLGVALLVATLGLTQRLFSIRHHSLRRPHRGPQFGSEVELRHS
Protocol: Solutions of each of these peptides at various concentrations were prepared, and measured for the ACE inhibitory activity in accordance with the method discussed below. The peptide concentration (μM) at which the ACE inhibitory effect was 50% was taken as IC50 value.
<Evaluation of ACE Inhibitory Activity>
ACE derived from bovine lung (manufactured by WAKO PURE CHEMICAL […], LTD.) was dissolved in a 0.1M borate buffer at pH 8.3 in an amount of 0.1 U, to obtain an ACE solution. […] Subsequently, the reaction was terminated by adding 250 μl of 1N hydrochloric acid (manufactured by WAKO PURE CHEMICAL […], LTD.). 1.7 ml of ethyl acetate (manufactured by WAKO PURE CHEMICAL […], LTD.) was then added, and stirred. 1.4 ml of the ethyl acetate layer was taken, placed in another tube, and evaporated at 120° C. for about 60 minutes to obtain a dried product. The dried product was dissolved in 1 ml of distilled water, and the absorbance at 228 nm of hippuric acid extracted with ethyl acetate was measured. As controls, absorbance was measured of a solution without the diluted solution and a solution without the diluted solution and the ACE solution. From the obtained absorbance, ACE inhibitory activity was calculated in accordance with the following formula. ACE inhibitory activity (%)=[(A−B)/A]×100 • A: (Absorbance of solution without diluted solution but with ACE solution)—(Absorbance of solution without diluted solution and ACE solution)
B: (Absorbance of solution with diluted solution and ACE solution)—(Absorbance of solution with diluted solution but without ACE solution)

Row | SMILES | pIC50
1 | NC(N)=NCCC[C@H](N)C(=O)N1CCC[C@H]1C(=O)O [Arg-Pro] (H-Arg-Pro-OH) | 3.56
2 | NC(=O)CC[C@H](N)C(=O)N1CCC[C@H]1C(=O)O [Gln-Pro] (H-Gln-Pro-OH) | 4.18
3 | N[C@@H](CCC(=O)O)C(=O)N1CCC[C@H]1C(=O)O [Glu-Pro] (H-Glu-Pro-OH; N-terminus and C-terminus assumed) | 3.76

Continued, values first:

Row | pIC50 | SMILES
4 | 3.35 | CC[C@H](C)[C@H](N)C(=O)N1CCC[C@H]1C(=O)O [Ile-Pro] (H-Ile-Pro-OH; N-terminus and C-terminus assumed)
5 | 3.87 | CSCC[C@H](N)C(=O)N1CCC[C@H]1C(=O)O [Met-Pro] (H-Met-Pro-OH; N-terminus and C-terminus assumed)

From US20070122451A1, “Biogically non-degradable peptides, angiostensin converting enzyme inhibitor, drug and functional food” (Calpis Co., Ltd., priority 2003, published 2007)
